Measured values: patent US20170152263A1, “Substituted Indazole Compounds as IRAK4 Inhibitors” (AURIGENE DISCOVERY TECHNOLOGIES LIMITED, priority 2014, published 2017)
pIC50: −log10 of the molar value. Where a name gives a salt, the structure may show the parent alone.

Molecular target: T1, recombinant IRAK-4 kinase (Homo sapiens, UniProt Q9NWZ3)
T1 construct: purchased Millipore, USA
T1 sequence (Q9NWZ3 1-460): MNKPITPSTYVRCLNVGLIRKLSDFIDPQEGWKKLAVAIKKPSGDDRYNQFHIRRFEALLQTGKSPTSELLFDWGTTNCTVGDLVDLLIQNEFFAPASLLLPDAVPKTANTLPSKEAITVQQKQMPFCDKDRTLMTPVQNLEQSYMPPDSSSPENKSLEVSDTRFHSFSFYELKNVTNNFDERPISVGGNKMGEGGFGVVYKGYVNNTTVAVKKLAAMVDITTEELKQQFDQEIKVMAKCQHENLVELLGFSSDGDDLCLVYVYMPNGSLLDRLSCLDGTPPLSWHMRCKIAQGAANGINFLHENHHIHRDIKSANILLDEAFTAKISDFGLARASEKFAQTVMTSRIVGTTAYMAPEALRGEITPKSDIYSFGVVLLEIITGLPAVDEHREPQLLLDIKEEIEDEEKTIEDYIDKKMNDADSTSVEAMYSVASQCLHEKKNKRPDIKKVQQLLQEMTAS
Assay: IRAK-4 biochemical assay (TR-FRET)
Settings: IRAK-4 enzyme, 20 μM ATP; for inhibition at 1 µM: compound at 1 μM; for pIC50: dose response; for inhibition at 0.1 µM: compound at 0.1 μM
Procedure: Compounds were tested for their potential to inhibit IRAK-4 enzyme in a TR-FRET assay using recombinant IRAK-4 kinase from Millipore, USA. The assay buffer was 50 mM Tris-HCl pH 7.5, 20 mM MgCl2, 1 mM EGTA, 2 mM DTT, 3 mM MnCl2 and 0.01% Tween 20.5 ng of IRAK-4 kinase was used for the assay. After pre-incubation of enzyme with test compound for 30 minutes at room temperature, a substrate mixture containing 100 nM Biotin Histone H3 (Millipore, USA) and 20 μM ATP (Sigma, USA) was added and the reaction was incubated for 30 min. Post incubation, the reaction was stopped by the addition of stop mix containing 40 mM EDTA, 1 nM of Europium-Anti-Phospho-Histone H3 (Ser10) antibody (Perkin Elmer, USA) and 20 nM SureLight Allophycocyanin-Streptavidin (Perkin Elmer, USA). The fluorescence emission at 615 nm and 665 nm were measured at an excitation of 340 nm and the percent inhibition was estimated from the ratio of the fluorescence intensities [(F665/F615)×10000]. […] The IC50 values were estimated by fitting the dose-response data to sigmoidal dose response (variable slope), curve fitting program using Graphpad Prism software Version 6.01.

Row | inhibition at 1 µM | pIC50 | inhibition at 0.1 µM | Compound
1 | 99% | > 7.00 | 94% | Cc1cc(-c2nc(C(=O)Nc3cc4c(cnn4C)cc3N3CCCC(F)C3)co2)ccn1 (stereo not shown) [Example 16, N—(5-(3-fluoropiperidin-1-yl)-1-methyl-1H-indazol-6-yl)-2-(2-methylpyridin-4-yl)oxazole-4-carboxamide]
2 | 95% | > 7.00 | 93% | Cc1cc(-c2nc(C(=O)Nc3cc4c(cnn4C)cc3N3CCC(O)CC3)co2)ccn1 [Example 17, N—(5-(4-hydroxypiperidin-1-yl)-1-methyl-1H-indazol-6-yl)-2-(2-methylpyridin-4-yl)oxazole-4-carboxamide]
3 | 96% | > 7.00 | 94% | Cn1ncc2cc(N3CC[C@H](O)C3)c(NC(=O)c3coc(-c4ccnc(N)c4)n3)cc21 [Example 18, (S)-2-(2-aminopyridin-4-yl)—N—(5-(3-hydroxypyrrolidin-1-yl)-1-methyl-1H-indazol-6-yl)oxazole-4-carboxamide]
4 | 97% | > 7.00 | 94% | Cc1cc(-c2nc(C(=O)Nc3cc4c(cnn4C)cc3N3CCC(F)CC3)co2)ccn1 [Example 19, N—(5-(4-fluoropiperidin-1-yl)-1-methyl-1H-indazol-6-yl)-2-(2-methylpyridin-4-yl)oxazole-4-carboxamide]
5 | 97% | > 7.00 | 96% | Cc1cc(-c2nc(C(=O)Nc3cc4c(cnn4C)cc3N3CCC(CO)CC3)co2)ccn1 [Example 20, N-(5-(4-(hydroxymethyl)piperidin-1-yl)-1-methyl-1H-indazol-6-yl)-2-(2-methylpyridin-4-yl)oxazole-4-carboxamide]
6 | 84% | 6.60 to 7.00 | 41% | Cc1cc(-c2nc(C(=O)Nc3cc4c(cnn4C)cc3N3CC[C@H](O)C3)co2)cc(C)n1 [Example 21, (S)-2-(2,6-dimethylpyridin-4-yl)—N—(5-(3-hydroxypyrrolidin-1-yl)-1-methyl-1H-indazol-6-yl)oxazole-4-carboxamide]
7 | 96% | > 7.00 | 89% | Cc1cc(-c2nc(C(=O)Nc3cc4c(cnn4C)cc3N3CC[C@@H](O)C3)co2)ccn1 [Example 22, (R)—N—(5-(3-hydroxypyrrolidin-1-yl)-1-methyl-1H-indazol-6-yl)-2-(2-methylpyridin-4-yl)oxazole-4-carboxamide]
8 | 95% | > 7.00 | 81% | Cn1ncc2cc(N3CC[C@H](O)C3)c(NC(=O)c3coc(-c4cccnc4N)n3)cc21 [Example 23, (S)-2-(2-aminopyridin-3-yl)—N—(5-(3-hydroxypyrrolidin-1-yl)-1-methyl-1H-indazol-6-yl)oxazole-4-carboxamide]
9 | 80% | 6.60 to 7.00 | 33% | Cn1ncc2cc(N3CC[C@@H](O)C3)c(NC(=O)c3cccc(N4CC[C@H](O)C4)n3)cc21 [Example 24, 6-((S)-3-hydroxypyrrolidin-1-yl)—N—(5-((R)-3-hydroxypyrrolidin-1-yl)-1-methyl-1H-indazol-6-yl)picolinamide]
10 | 71% | < 6.60 | 24% | Cn1ncc2cc(N3CC[C@H](O)C3)c(NC(=O)c3cccc(N4CC[C@H](O)C4)n3)cc21 [Example 25, 6-((S)-3-hydroxypyrrolidin-1-yl)—N—(5-((S)-3-hydroxypyrrolidin-1-yl)-1-methyl-1H-indazol-6-yl)picolinamide]

Continued, compound first:

Row | Compound | inhibition at 1 µM | pIC50 | inhibition at 0.1 µM
11 | Cc1cc(-c2nc(C(=O)Nc3cc4c(cnn4C)cc3N3CCCCC3)co2)ccn1 [Example 1, N-(1-methyl-5-(piperidin-1-yl)-1H-indazol-6-yl)-2-(2-methylpyridin-4-yl)oxazole-4-carboxamide hydrochloride] | 96% | > 7.00 | 
12 | Cc1cc(-c2nc(C(=O)Nc3cc4nn(C)cc4cc3N3CCCCC3)co2)ccn1 [Example 2, N—(2-methyl-5-(piperidin-1-yl)-2H-indazol-6-yl)-2-(2-methylpyridin-4-yl)oxazole-4-carboxamide hydrochloride] | 98% | > 7.00 | 
13 | Cn1cc2cc(N3CCCCC3)c(NC(=O)c3cccc(N4CC[C@H](O)C4)n3)cc2n1 [Example 3, (S)-6-(3-hydroxypyrrolidin-1-yl)—N—(2-methyl-5-(piperidin-1-yl)-2H-indazol-6-yl)picolinamide] | 73% | < 6.60 | 90%
14 | Cn1ncc2cc(N3CCCCC3)c(NC(=O)c3coc(N4CC[C@H](N)C4)n3)cc21 [Example 4, (S)-2-(3-aminopyrrolidin-1-yl)—N—(1-methyl-5-(piperidin-1-yl)-1H-indazol-6-yl)oxazole-4-carboxamide] | 84% | 6.60 to 7.00 | 
15 | Cn1cc2cc(N3CCCCC3)c(NC(=O)c3coc(N4CC[C@H](N)C4)n3)cc2n1 [Example 5, (S)-2-(3-aminopyrrolidin-1-yl)—N—(2-methyl-5-(piperidin-1-yl)-2H-indazol-6-yl)oxazole-4-carboxamide] | 82% | < 6.60 | 95%
16 | Cn1cc2cc(N3CCCCC3)c(NC(=O)c3coc(N4CC[C@H](O)C4)n3)cc2n1 [Example 6, (S)-2-(3-hydroxypyrrolidin-1-yl)—N—(2-methyl-5-(piperidin-1-yl)-2H-indazol-6-yl)oxazole-4-carboxamide] | 90% | 6.60 to 7.00 | 96%
17 | Cn1cc2cc(N3CCCCC3)c(NC(=O)c3cccc(N4CC[C@H](N)C4)n3)cc2n1 [Example 7, (S)-6-(3-aminopyrrolidin-1-yl)—N—(2-methyl-5-(piperidin-1-yl)-2H-indazol-6-yl)picolinamide] | 83% | < 6.60 | 93%
18 | Cn1ncc2cc(N3CCCCC3)c(NC(=O)c3cccc(N4CC[C@H](N)C4)n3)cc21 [Example 8, (S)-6-(3-aminopyrrolidin-1-yl)—N—(1-methyl-5-(piperidin-1-yl)-1H-indazol-6-yl)picolinamide] | 56% | < 6.60 | 90%
19 | Cn1ncc2cc(N3CCCCC3)c(NC(=O)c3cccc(N4CC[C@H](O)C4)n3)cc21 [Example 9, (S)-6-(3-hydroxypyrrolidin-1-yl)—N—(1-methyl-5-(piperidin-1-yl)-1H-indazol-6-yl)picolinamide] | 78% | < 6.60 | 83%
20 | Cn1ncc2cc(N3CCCCC3)c(NC(=O)c3coc(N4CC[C@H](O)C4)n3)cc21 [Example 10, (S)-2-(3-hydroxypyrrolidin-1-yl)—N—(1-methyl-5-(piperidin-1-yl)-1H-indazol-6-yl)oxazole-4-carboxamide] | 91% | > 7.00 | 95%
21 | Cc1cc(-c2nc(C(=O)Nc3cc4c(cnn4C)cc3N3CC[C@H](O)C3)co2)ccn1 [Example 11, (S)—N—(5-(3-hydroxypyrrolidin-1-yl)-1-methyl-1H-indazol-6-yl)-2-(2-methylpyridin-4-yl)oxazole-4-carboxamide hydrochloride] | 98% | > 7.00 | 95%
22 | Cc1cc(-c2nc(C(=O)Nc3cc4c(cnn4C)cc3N3CCCC(O)C3)co2)ccn1 (stereo not shown) [Example 12, N—(5-(3-hydroxypiperidin-1-yl)-1-methyl-1H-indazol-6-yl)-2-(2-methylpyridin-4-yl)oxazole-4-carboxamide hydrochloride] |  | > 7.00 | 94%
23 | Cc1cc(-c2nc(C(=O)Nc3cc4nn(C)cc4cc3N3CCCC(O)C3)co2)ccn1 (stereo not shown) [Example 13, N—(5-(3-hydroxypiperidin-1-yl)-2-methyl-2H-indazol-6-yl)-2-(2-methylpyridin-4-yl)oxazole-4-carboxamide hydrochloride] |  | > 7.00 | 79%
24 | Cc1cc(-c2nc(C(=O)Nc3cc4nn(C)cc4cc3N3CCCC(F)C3)co2)ccn1 (stereo not shown) [Example 14, N—(5-(3-fluoropiperidin-1-yl)-2-methyl-2H-indazol-6-yl)-2-(2-methylpyridin-4-yl)oxazole-4-carboxamide] | 96% | > 7.00 | 94%
25 | CC(=O)Nc1cc(-c2nc(C(=O)Nc3cc4c(cnn4C)cc3N3CC[C@H](O)C3)co2)ccn1 [Example 15] | 99% | > 7.00 | 83%
